{"source": "PubChem BioAssay AID1963441", "about": "(Molecular Pharmacology Branch, DTP, NCI, 2024)", "system": "NCI-H1876 complex spheroid growth, % test/control", "experiment": "Anticancer human tumor NCI-H1876 cell line growth inhibition [Asc];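 as to all read-outs here: compound exposure lasted 7 days starting three days after seeding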;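 as to viability, T/C: 100% = DMSO vehicle control wells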", "conditions": "for pIC50: curve of first compound; for viability, T/C: stronger effect = lower value", "summary_of_the_method": "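Tumor cells were grown as complex spheroids with human endothelial cells (HUVEC) and human mesenchymal stem cells as stroma. Agents were tested alone and in combination, in half-log steps down from the clinical Cmax, or from 10 microM where Cmax was unknown.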", "note": "pIC50: −log10 of the molar value.", "data": [{"smiles": "NC1CCC(NC2CC2c2ccccc2)CC1", "note": "(configuration not stated) + Cc1c(S(C)(=O)=O)c(-c2cc(F)cc(N3CCN(c4ccc(NS(=O)(=O)c5ccc(NC(CCN6CCC(C(=O)OCCCP(=O)(O)O)CC6)CSc6ccccc6)c(S(=O)(=O)C(F)(F)F)c5)cc4)CC3)c2)c(-c2ccc(Cl)cc2)n1C(C)C", "values": [{"measurement": "pIC50", "setting": "second compound 0.0316 µM", "result": "< 7.00"}, {"measurement": "pIC50", "setting": "second compound 0.1 µM", "result": "< 7.00"}, {"measurement": "pIC50", "setting": "second compound 0.316 µM", "result": "< 7.00"}, {"measurement": "pIC50", "setting": "second compound 1 µM", "result": "< 7.00"}, {"measurement": "pIC50", "setting": "second compound 3.16 µM", "result": "< 7.00"}, {"measurement": "pIC50", "setting": "second compound 10 µM", "result": "< 7.00"}, {"measurement": "viability, T/C", "setting": "second compound 0.0316 µM, first compound 0.000316 µM", "result": 111, "unit": "%"}, {"measurement": "viability, T/C", "setting": "second compound 0.0316 µM, first compound 0.001 µM", "result": 101, "unit": "%"}, {"measurement": "viability, T/C", "setting": "second compound 0.0316 µM, first compound 0.00316 µM", "result": 99.3, "unit": "%"}, {"measurement": "viability, T/C", "setting": "second compound 0.0316 µM, first compound 0.01 µM", "result": 106, "unit": "%"}, {"measurement": "viability, T/C", "setting": "second compound 0.0316 µM, first compound 0.0316 µM", "result": 109, "unit": "%"}, {"measurement": "viability, T/C", "setting": "second compound 0.0316 µM, first compound 0.1 µM", "result": 119, "unit": "%"}, {"measurement": "viability, T/C", "setting": "second compound 0.1 µM, first compound 0.000316 µM", "result": 114, "unit": "%"}, {"measurement": "viability, T/C", "setting": "second compound 0.1 µM, first compound 0.001 µM", "result": 103, "unit": "%"}, {"measurement": "viability, T/C", "setting": "second compound 0.1 µM, first compound 0.00316 µM", "result": 105, "unit": "%"}, {"measurement": "viability, T/C", "setting": "second compound 0.1 µM, first compound 0.01 µM", "result": 110, "unit": "%"}, {"measurement": "viability, T/C", "setting": "second compound 0.1 µM, first compound 0.0316 µM", "result": 103, "unit": "%"}, {"measurement": "viability, T/C", "setting": "second compound 0.1 µM, first compound 0.1 µM", "result": 112, "unit": "%"}, {"measurement": "viability, T/C", "setting": "second compound 0.316 µM, first compound 0.000316 µM", "result": 99.6, "unit": "%"}, {"measurement": "viability, T/C", "setting": "second compound 0.316 µM, first compound 0.001 µM", "result": 103, "unit": "%"}, {"measurement": "viability, T/C", "setting": "second compound 0.316 µM, first compound 0.00316 µM", "result": 113, "unit": "%"}, {"measurement": "viability, T/C", "setting": "second compound 0.316 µM, first compound 0.01 µM", "result": 101, "unit": "%"}, {"measurement": "viability, T/C", "setting": "second compound 0.316 µM, first compound 0.0316 µM", "result": 120, "unit": "%"}, {"measurement": "viability, T/C", "setting": "second compound 0.316 µM, first compound 0.1 µM", "result": 106, "unit": "%"}, {"measurement": "viability, T/C", "setting": "second compound 1 µM, first compound 0.000316 µM", "result": 97.5, "unit": "%"}, {"measurement": "viability, T/C", "setting": "second compound 1 µM, first compound 0.001 µM", "result": 97.7, "unit": "%"}, {"measurement": "viability, T/C", "setting": "second compound 1 µM, first compound 0.00316 µM", "result": 93.1, "unit": "%"}, {"measurement": "viability, T/C", "setting": "second compound 1 µM, first compound 0.01 µM", "result": 93.9, "unit": "%"}, {"measurement": "viability, T/C", "setting": "second compound 1 µM, first compound 0.0316 µM", "result": 109, "unit": "%"}, {"measurement": "viability, T/C", "setting": "second compound 1 µM, first compound 0.1 µM", "result": 114, "unit": "%"}, {"measurement": "viability, T/C", "setting": "second compound 3.16 µM, first compound 0.000316 µM", "result": 103, "unit": "%"}, {"measurement": "viability, T/C", "setting": "second compound 3.16 µM, first compound 0.001 µM", "result": 112, "unit": "%"}, {"measurement": "viability, T/C", "setting": "second compound 3.16 µM, first compound 0.00316 µM", "result": 98.2, "unit": "%"}, {"measurement": "viability, T/C", "setting": "second compound 3.16 µM, first compound 0.01 µM", "result": 104, "unit": "%"}, {"measurement": "viability, T/C", "setting": "second compound 3.16 µM, first compound 0.0316 µM", "result": 110, "unit": "%"}, {"measurement": "viability, T/C", "setting": "second compound 3.16 µM, first compound 0.1 µM", "result": 98.9, "unit": "%"}, {"measurement": "viability, T/C", "setting": "second compound 10 µM, first compound 0.000316 µM", "result": 118, "unit": "%"}, {"measurement": "viability, T/C", "setting": "second compound 10 µM, first compound 0.001 µM", "result": 105, "unit": "%"}, {"measurement": "viability, T/C", "setting": "second compound 10 µM, first compound 0.00316 µM", "result": 101, "unit": "%"}, {"measurement": "viability, T/C", "setting": "second compound 10 µM, first compound 0.01 µM", "result": 103, "unit": "%"}, {"measurement": "viability, T/C", "setting": "second compound 10 µM, first compound 0.0316 µM", "result": 111, "unit": "%"}, {"measurement": "viability, T/C", "setting": "second compound 10 µM, first compound 0.1 µM", "result": 108, "unit": "%"}]}]}
